According to ChEMBL document CHEMBL4622890, “Antiproliferative Flavanoid Dimers Isolated from Brazilian Red Propolis” (J Nat Prod, 2020):

What was measured:
[1] = Chemopreventive index, ratio of IC50 for mouse Hepa-1c1c7 cells to drug level required to double NADPH:quinone reductase activity in mouse Hepa-1c1c7 cells
[2] = Antioxidant activity assessed as hydroxyl radical scavenging activity after 5 mins by H2DCF-DA dye based fluorescence spectrophotometric analysis; assay type: functional
[3] = test system: HT-29; experiment: Cytotoxicity against human HT-29 cells after 3 days by sulforhodamine B assay; assay type: functional, cell-based; conditions: HT-29, 72 h
[4] = test system: U-251; experiment: Cytotoxicity against human U251 cells after 48 hrs by MTT assay; assay type: functional; conditions: U-251, 48 h
[5] = test system: NCI/ADR-RES; experiment: Cytotoxicity against human NCI-ADR-RES cells after 48 hrs by MTT assay; assay type: functional
[6] = test system: PC-3; experiment: Cytotoxicity against human PC3 cells after 48 hrs by MTT assay; assay type: functional; conditions: PC-3, 48 h
[7] = test system: MCF7; experiment: Cytotoxicity against human MCF7 cells after 48 hrs by MTT assay; assay type: functional; conditions: MCF7, 48 h
[8] = molecular target: Transcription factor p65 (Homo sapiens, UniProt Q04206); experiment: Inhibition of NF-kappaB p65 in human HeLa cells nuclear extract by chemiluminescent assay; assay type: cell-free
Chain of Transcription factor p65 (Q04206 whole entry): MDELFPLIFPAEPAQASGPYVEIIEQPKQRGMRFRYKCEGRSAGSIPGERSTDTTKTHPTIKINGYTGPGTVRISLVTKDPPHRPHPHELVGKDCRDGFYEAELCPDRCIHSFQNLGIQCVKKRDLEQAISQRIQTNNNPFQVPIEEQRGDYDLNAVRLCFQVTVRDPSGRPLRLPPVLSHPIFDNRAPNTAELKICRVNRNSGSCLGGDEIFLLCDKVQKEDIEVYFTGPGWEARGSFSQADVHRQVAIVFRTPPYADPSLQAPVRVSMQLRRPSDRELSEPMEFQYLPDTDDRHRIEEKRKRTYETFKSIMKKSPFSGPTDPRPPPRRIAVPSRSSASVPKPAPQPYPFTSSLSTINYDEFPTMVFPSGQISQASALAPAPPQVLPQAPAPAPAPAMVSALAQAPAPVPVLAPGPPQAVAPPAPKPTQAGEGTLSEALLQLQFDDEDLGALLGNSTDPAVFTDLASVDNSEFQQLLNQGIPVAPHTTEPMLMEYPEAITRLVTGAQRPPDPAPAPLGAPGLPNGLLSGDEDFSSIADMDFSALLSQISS

## C[S+]([O-])CCCCN=C=S (stereo not drawn) [SULFORAPHANE]
[1]
  Ratio: 21.4

## C=CC(C)(C)c1cc2c(cc1O)OC[C@H](c1cc(-c3oc4cc(O)ccc4c3C(=O)c3cc(C(C)(C)C=C)c(O)cc3O)c(O)cc1O)C2
[2]
  ED50: 0.7 to 0.9 µM
[3]
  IC50: 1.6 to 4.5 µM
[1]
  Ratio: 1.3 - 7.4

## C=CC(C)(C)c1cc(-c2oc3cc(O)ccc3c2Cc2cc(-c3cc4cc(C(C)(C)C=C)c(O)cc4oc3=O)c(O)cc2O)c(O)cc1O
[2]
  ED50: 0.7 to 0.9 µM
[3]
  IC50: 1.6 to 4.5 µM
[1]
  Ratio: 1.3 - 7.4

## COc1ccc2c(c1)OCC(c1cc(-c3oc4cc(OC)ccc4c3Cc3ccc(O)cc3O)c(O)cc1O)C2 (stereo not drawn)
[4]
  TGI: 25 µM
[5]
  TGI: 29.9 µM
[6]
  LC50: ≥ 10 µM
  TGI: 21.9 µM
[7]
  TGI: 34.6 µM

## COc1ccc2c(c1)OCC(c1cc(Cc3c(-c4ccc(O)cc4O)oc4cc(OC)ccc34)c(O)cc1O)C2 (stereo not drawn)
[4]
  TGI: 17.2 µM
[4]; read-out: LC50 (the source's name)
  CC50: ≥ 10 µM
[5]
  LC50 (concentration killing 50% of cells): ≥ 10 µM
  TGI: 19.1 µM
[6]
  LC50: ≥ 10 µM
  TGI: 19.1 µM
[7]
  LC50 (lethal concentration 50%): ≥ 10 µM
  TGI: 27 µM

## C=CC(C)(C)c1cc(C(=O)c2c(-c3cc(-c4cc5cc(C(C)(C)C=C)c(O)cc5oc4=O)c(O)cc3O)oc3cc(O)ccc23)c(O)cc1O
[2]
  ED50: 0.7 to 0.9 µM
[3]
  IC50: 1.6 to 4.5 µM
[8]
  IC50: 0.006 µM
[1]
  Ratio: 1.3 - 7.4

## COc1cccc2c1C(=O)c1c(O)c3c(c(O)c1C2=O)C[C@@](O)(C(=O)CO)C[C@@H]3O[C@H]1C[C@H](N)[C@H](O)[C@H](C)O1 [DOXORUBICIN]
[4]
  TGI: 6.9 µM
[5]
  TGI: 16.1 µM
[6]
  TGI: 4 µM
[7]
  TGI: 12.2 µM
